Here are results for four molecules from paper PMC10004634 (PLOS ONE, 2023).

Read-outs that look alike come from different tables or passages of the source.

Among the targets are FES (Homo sapiens, UniProt P07332); PIK3C2B (Homo sapiens, UniProt O00750); CHEK2 (Homo sapiens, UniProt O96017); NLK (Homo sapiens, UniProt Q9UBE8); MAP3K2 (Homo sapiens, UniProt Q9Y2U5); SGK3 (Homo sapiens, UniProt Q96BR1); TSSK1B (Homo sapiens, UniProt Q9BXA7); AKT2 (Homo sapiens, UniProt P31751); PAK3 (Homo sapiens, UniProt O75914); MKNK2 (Homo sapiens, UniProt Q9HBH9); BMPR2 (Homo sapiens, UniProt Q13873); EGFR(L858R,T790M) (Homo sapiens, UniProt P00533, L858R/T790M); EGFR(E746-A750del) (Homo sapiens, UniProt P00533, DEL746-750).

Common to all, as to assay: biochemical
Common to all, as to parameters: KINOMEscan scanMAX competition binding, DNA-tagged kinases, qPCR read-out, percent control at 300 nM
(Quantitative PCR measures a nucleic acid by following its amplification.)

Another experiment addresses T1, AMPK-alpha1 (Homo sapiens, UniProt Q13131).
T1 construct: gene PRKAA1

For experiment [1], the target named is T2, RPS6KA4(Kin.Dom.1-N-terminal) (Homo sapiens, UniProt O75676).
T2 construct: Kin.Dom.1-N-terminal

For a further experiment, the target named is T3, TIE2 (Homo sapiens, UniProt Q02763).
T3 construct: gene TEK

Experiment [2] addresses T4, RSK1(Kin.Dom.2-C-terminal) (Homo sapiens, UniProt Q15418).
T4 construct: gene RPS6KA1; Kin.Dom.2-C-terminal

The target of the next experiment is T5, YANK1 (Homo sapiens, UniProt Q8WU08).
T5 construct: gene STK32A

The target in experiment [3] is T6, TYK2(JH1domain-catalytic) (Homo sapiens, UniProt P29597).
T6 construct: JH1domain-catalytic

In a further experiment the target is T7, CDK4-cyclinD3 (Homo sapiens, UniProt P11802).
T7 construct: cyclinD3

In a further experiment the target is T8, QSK (Homo sapiens, UniProt Q9Y2K2).
T8 construct: gene SIK3

The target in another experiment is T9, ADCK3 (Homo sapiens, UniProt Q8NI60).
T9 construct: gene COQ8A

For a further experiment, the target named is T10, DRAK1 (Homo sapiens, UniProt Q9UEE5).
T10 construct: gene STK17A

[4] abbreviates: read-out: Percent control / Zanubrutinib.
Setting [5] is: read-out: Percent control / Tirabrutinib.
Where [6] appears, read: read-out: Percent control / Ibrutinib.
[7] abbreviates: read-out: Percent control / Acalabrutinib.

NLK, sequence (Q9UBE8 whole entry): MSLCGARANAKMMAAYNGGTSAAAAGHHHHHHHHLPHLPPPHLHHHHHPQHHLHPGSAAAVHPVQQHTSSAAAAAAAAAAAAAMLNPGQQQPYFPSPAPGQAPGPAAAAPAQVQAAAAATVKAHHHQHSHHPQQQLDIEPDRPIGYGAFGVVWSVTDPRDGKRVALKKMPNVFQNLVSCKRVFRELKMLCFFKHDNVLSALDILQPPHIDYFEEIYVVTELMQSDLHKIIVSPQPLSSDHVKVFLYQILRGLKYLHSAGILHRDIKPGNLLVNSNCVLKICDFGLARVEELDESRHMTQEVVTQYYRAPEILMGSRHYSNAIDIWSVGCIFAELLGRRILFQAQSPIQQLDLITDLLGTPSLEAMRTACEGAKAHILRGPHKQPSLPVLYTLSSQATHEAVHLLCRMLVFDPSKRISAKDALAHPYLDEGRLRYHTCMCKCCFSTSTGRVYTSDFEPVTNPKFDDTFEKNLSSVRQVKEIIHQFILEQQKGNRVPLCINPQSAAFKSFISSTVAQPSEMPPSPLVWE
T4 sequence (Q15418 whole entry): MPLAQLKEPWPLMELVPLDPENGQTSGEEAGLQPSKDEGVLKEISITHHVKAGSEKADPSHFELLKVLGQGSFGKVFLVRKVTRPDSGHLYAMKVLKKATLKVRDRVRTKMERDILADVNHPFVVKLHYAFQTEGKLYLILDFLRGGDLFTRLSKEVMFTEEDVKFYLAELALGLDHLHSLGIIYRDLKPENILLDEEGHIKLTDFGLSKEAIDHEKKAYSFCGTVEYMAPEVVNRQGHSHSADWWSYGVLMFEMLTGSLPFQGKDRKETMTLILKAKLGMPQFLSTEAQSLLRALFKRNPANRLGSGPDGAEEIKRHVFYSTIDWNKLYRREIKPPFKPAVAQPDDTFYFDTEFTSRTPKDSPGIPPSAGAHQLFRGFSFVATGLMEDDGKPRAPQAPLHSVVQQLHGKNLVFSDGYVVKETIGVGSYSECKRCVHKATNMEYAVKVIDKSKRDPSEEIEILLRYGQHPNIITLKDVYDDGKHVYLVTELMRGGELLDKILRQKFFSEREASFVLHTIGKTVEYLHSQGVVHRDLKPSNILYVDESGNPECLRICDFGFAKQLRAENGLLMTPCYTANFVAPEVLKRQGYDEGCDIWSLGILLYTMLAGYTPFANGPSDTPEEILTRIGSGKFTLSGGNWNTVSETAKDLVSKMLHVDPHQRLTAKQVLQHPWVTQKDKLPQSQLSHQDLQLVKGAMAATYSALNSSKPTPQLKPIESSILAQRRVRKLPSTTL
AKT2, sequence (P31751 whole entry): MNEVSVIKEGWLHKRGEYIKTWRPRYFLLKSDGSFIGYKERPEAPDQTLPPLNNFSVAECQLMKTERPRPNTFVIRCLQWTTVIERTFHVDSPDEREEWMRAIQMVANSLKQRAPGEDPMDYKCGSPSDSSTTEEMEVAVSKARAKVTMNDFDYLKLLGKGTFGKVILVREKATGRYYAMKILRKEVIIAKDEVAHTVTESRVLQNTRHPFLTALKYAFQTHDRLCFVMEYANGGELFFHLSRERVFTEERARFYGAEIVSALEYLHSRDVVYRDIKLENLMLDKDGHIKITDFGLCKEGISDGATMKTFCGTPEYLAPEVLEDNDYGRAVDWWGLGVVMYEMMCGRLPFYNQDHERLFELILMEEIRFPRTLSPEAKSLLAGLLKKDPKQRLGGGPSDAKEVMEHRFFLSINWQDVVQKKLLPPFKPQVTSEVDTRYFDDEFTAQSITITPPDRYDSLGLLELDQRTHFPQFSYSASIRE
PIK3C2B, sequence (O00750 whole entry): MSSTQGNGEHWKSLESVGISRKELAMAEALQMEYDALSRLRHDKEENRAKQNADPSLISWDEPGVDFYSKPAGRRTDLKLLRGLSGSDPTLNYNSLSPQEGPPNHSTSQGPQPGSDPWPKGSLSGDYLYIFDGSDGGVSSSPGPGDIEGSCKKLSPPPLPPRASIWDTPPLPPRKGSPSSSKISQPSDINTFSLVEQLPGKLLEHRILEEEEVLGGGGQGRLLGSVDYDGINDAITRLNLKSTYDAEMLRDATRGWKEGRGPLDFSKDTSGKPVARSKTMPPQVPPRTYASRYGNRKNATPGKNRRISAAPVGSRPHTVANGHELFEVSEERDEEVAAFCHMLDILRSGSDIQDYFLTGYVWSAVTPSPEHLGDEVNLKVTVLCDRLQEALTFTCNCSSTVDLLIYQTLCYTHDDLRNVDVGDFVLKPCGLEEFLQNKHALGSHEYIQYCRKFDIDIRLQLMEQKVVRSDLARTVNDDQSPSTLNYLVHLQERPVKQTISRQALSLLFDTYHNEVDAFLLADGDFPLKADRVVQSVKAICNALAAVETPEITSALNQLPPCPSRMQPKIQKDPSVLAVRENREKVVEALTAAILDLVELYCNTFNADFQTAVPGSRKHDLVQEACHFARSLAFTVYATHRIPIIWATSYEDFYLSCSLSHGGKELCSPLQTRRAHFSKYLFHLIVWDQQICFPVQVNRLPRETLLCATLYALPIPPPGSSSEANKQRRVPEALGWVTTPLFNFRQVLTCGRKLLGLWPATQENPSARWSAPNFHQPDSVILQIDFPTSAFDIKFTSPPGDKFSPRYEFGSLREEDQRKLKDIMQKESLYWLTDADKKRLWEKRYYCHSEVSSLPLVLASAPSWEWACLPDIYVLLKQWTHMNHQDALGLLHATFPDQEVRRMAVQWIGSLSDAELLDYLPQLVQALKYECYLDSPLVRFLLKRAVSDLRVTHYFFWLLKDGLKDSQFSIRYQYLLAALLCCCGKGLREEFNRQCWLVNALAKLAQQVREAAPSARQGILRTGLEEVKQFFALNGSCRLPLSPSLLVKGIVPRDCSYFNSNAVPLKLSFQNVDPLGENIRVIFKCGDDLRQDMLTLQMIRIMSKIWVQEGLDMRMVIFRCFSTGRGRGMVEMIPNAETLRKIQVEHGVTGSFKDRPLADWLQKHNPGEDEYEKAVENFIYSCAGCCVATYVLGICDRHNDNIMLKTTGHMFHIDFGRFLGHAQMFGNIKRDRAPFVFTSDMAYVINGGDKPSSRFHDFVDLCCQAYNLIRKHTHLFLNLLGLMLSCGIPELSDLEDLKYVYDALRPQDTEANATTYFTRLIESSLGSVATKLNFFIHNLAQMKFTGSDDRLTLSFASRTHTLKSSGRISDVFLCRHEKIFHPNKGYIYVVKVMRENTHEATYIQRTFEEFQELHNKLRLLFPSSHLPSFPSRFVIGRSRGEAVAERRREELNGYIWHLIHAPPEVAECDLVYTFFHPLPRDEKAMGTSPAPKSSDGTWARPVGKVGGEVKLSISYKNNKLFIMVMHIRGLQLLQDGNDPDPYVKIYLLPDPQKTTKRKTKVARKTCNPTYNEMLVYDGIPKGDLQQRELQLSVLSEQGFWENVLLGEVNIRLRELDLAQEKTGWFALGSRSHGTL
CHEK2, sequence (O96017 whole entry): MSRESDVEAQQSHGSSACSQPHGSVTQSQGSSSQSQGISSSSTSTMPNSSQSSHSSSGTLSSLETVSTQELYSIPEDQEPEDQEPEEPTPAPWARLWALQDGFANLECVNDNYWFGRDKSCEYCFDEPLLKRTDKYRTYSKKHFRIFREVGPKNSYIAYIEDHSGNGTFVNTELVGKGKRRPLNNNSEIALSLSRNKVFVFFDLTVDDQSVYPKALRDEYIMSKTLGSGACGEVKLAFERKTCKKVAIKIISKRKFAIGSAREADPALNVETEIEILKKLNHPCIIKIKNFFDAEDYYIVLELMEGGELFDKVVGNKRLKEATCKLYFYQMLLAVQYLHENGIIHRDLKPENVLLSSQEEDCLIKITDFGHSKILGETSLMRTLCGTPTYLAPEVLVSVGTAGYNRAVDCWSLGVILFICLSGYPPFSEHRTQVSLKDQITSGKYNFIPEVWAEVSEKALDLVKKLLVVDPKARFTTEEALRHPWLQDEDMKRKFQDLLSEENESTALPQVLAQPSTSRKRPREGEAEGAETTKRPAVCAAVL
TSSK1B, sequence (Q9BXA7 whole entry): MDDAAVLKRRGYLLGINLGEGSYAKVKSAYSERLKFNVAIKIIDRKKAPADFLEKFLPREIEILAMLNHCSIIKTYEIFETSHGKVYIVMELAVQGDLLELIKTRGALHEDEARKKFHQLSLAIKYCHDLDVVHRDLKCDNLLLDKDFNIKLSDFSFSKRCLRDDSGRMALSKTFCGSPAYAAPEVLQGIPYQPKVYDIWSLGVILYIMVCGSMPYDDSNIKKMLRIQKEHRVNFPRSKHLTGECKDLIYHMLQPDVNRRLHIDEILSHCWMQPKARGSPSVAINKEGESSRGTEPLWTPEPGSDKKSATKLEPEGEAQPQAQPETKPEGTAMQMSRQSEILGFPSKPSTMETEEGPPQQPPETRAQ
MKNK2, sequence (Q9HBH9 whole entry): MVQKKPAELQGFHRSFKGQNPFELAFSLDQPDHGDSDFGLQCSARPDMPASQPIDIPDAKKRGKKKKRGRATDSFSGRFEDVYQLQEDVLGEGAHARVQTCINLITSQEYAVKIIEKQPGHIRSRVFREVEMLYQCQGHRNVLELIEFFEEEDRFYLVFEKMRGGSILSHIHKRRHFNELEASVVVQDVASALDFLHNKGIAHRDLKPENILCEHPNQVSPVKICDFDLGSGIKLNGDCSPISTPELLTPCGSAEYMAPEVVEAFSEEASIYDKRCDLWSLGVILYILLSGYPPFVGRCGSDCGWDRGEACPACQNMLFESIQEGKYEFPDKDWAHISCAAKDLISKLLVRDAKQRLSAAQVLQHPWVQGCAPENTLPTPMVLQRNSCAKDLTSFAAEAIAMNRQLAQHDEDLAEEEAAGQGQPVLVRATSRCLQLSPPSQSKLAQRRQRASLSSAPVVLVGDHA

In the case of `C=CC(=O)N1CCC([C@@H]2CCNc3c(C(N)=O)c(-c4ccc(Oc5ccccc5)cc4)nn32)CC1` [Zanubrutinib], the remaining binding at 0.3 µM on AMPK-alpha1 (setting [4]) came out at 88%; in [1] (setting [4]), 100%; at FES (setting [4]), 100%; on TIE2 (setting [4]), 99%; in [2] (setting [4]), 92%; at YANK1 (setting [4]) it was 75%. The remaining binding at 0.3 µM on PIK3C2B (setting [4]) was determined as 62%; at CHEK2 (setting [4]), 98%; on NLK (setting [4]), 80%; at MAP3K2 (setting [4]) it was 85%; at SGK3 (setting [4]) it was 74%; in [3] (setting [4]), 82%. The remaining binding at 0.3 µM came out at 100% at TSSK1B (setting [4]); 82% on AKT2 (setting [4]); 98% at CDK4-cyclinD3 (setting [4]); 83% at PAK3 (setting [4]); 84% on MKNK2 (setting [4]); 45% on QSK (setting [4]). In addition, at BMPR2 (setting [4]), the remaining binding at 0.3 µM came to 93%.
On to `CC#CC(=O)N1CC[C@@H](n2c(=O)n(-c3ccc(Oc4ccccc4)cc3)c3c(N)ncnc32)C1` [Tirabrutinib], for which the remaining binding at 0.3 µM was 95% at ADCK3 (setting [5]), 88% in [2] (setting [5]), 100% on EGFR(L858R,T790M) (setting [5]) and 100% on EGFR(E746-A750del) (setting [5]).
Consider `C=CC(=O)N1CCC[C@@H](n2nc(-c3ccc(Oc4ccccc4)cc3)c3c(N)ncnc32)C1` [Ibrutinib], for which the remaining binding at 0.3 µM at AMPK-alpha1 (setting [6]) amounted to 92%; in experiment [1] (setting [6]) it was 87%; at ADCK3 (setting [6]), 98%; at TIE2 (setting [6]), 72%; in experiment [3] (setting [6]), 87%; at DRAK1 (setting [6]) it was 74%.
`CC#CC(=O)N1CCC[C@H]1c1nc(-c2ccc(C(=O)Nc3ccccn3)cc2)c2c(N)nccn12` [Acalabrutinib]: the remaining binding at 0.3 µM on FES (setting [7]) amounted to 90%; on YANK1 (setting [7]), 97%; at PIK3C2B (setting [7]), 93%; at CHEK2 (setting [7]), 84%; at NLK (setting [7]), 78%; at EGFR(L858R,T790M) (setting [7]) it was 97%. Also, the remaining binding at 0.3 µM came out at 96% at EGFR(E746-A750del) (setting [7]); 97% on MAP3K2 (setting [7]); 94% at SGK3 (setting [7]); 93% on TSSK1B (setting [7]); 87% on AKT2 (setting [7]); 97% on CDK4-cyclinD3 (setting [7]). In addition, the remaining binding at 0.3 µM came out at 77% at PAK3 (setting [7]); 93% at MKNK2 (setting [7]); 95% on DRAK1 (setting [7]); 90% at QSK (setting [7]); 99% on BMPR2 (setting [7]).
